Assay results as given in the supplement of paper PMC12317010.

Assay: collision cross section in nitrogen (drift tube, single-field); higher = larger gas-phase ion size
[1] = ion type: [M+H], ion source: APCI, ion mode: Positive
[2] = ion type: [M+H], ion source: ESI, ion mode: Positive
[3] = ion type: [M+Na], ion source: ESI, ion mode: Positive
[4] = ion type: [M-H], ion source: ESI, ion mode: Negative
[5] = ion type: [M+], ion source: APCI, ion mode: Positive
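Note: chemical standards at 10 µM analysed by drift tube IMS-QTOF MS in about 3.95 torr nitrogen, mean of duplicate injections differing ≤1%, mass error below 10 ppm.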

OCCc1ccncc1 [2-(Pyridin-4-yl)ethanol]
collision cross section in nitrogen [1]: 124.6 Å² | collision cross section in nitrogen [2]: 124.3 Å²

CCCCC(CC)COC(=O)c1ccccc1C(=O)OCC(CC)CCCC (stereo not given) [Di(2-ethylhexyl) phthalate]
collision cross section in nitrogen [3]: 215.9 Å²

CC(C)CCCCCCCCCCCCCCC(=O)O [16-Methylheptadecanoic acid]
collision cross section in nitrogen [4]: 177.5 Å²

COC(=O)CCSCCC(=O)OC [Dimethyl 3,3'-thiodipropionate]
collision cross section in nitrogen [3]: 146.5 Å²

O=[N+]([O-])O [Copper(II) nitrate trihydrate]
collision cross section in nitrogen [4]: 104.1 Å²

COc1cnc(OC)n2nc(NS(=O)(=O)c3c(OCC(F)F)cccc3C(F)(F)F)nc12 [Penoxsulam]
collision cross section in nitrogen [1]: 196 Å² | collision cross section in nitrogen [2]: 195.6 Å² | collision cross section in nitrogen [3]: 198.5 Å² | collision cross section in nitrogen [4]: 193.3 Å²

CN1C(C)(C)CC(O)CC1(C)C [1,2,2,6,6-Pentamethylpiperidin-4-ol]
collision cross section in nitrogen [1]: 136 Å² | collision cross section in nitrogen [2]: 136.9 Å²

O=C(O)c1cccc([N+](=O)[O-])c1 [3-Nitrobenzoic acid]
collision cross section in nitrogen [4]: 131.2 Å²

Sc1nc2ccccc2s1 [Sodium 2-mercaptobenzothiolate]
collision cross section in nitrogen [4]: 127.7 Å²

Cc1ccccc1OP(=O)(Oc1ccccc1)Oc1ccccc1 [Cresyl diphenyl phosphate]
collision cross section in nitrogen [1]: 178.3 Å² | collision cross section in nitrogen [2]: 178 Å² | collision cross section in nitrogen [3]: 188.4 Å²

CCCOC/C(=N\c1ccc(Cl)cc1C(F)(F)F)n1ccnc1 [Triflumizole]
collision cross section in nitrogen [1]: 179.8 Å² | collision cross section in nitrogen [2]: 180 Å² | collision cross section in nitrogen [4]: 170.3 Å²

O=c1c2ccccc2oc2ccccc12 [Xanthone]
collision cross section in nitrogen [1]: 135.2 Å²

O=C(O)C(=O)Cc1c[nH]c2ccccc12 [Indole-3-pyruvic acid]
collision cross section in nitrogen [1]: 139.3 Å² | collision cross section in nitrogen [4]: 141.6 Å²

CCN1CCCC1=O [1-Ethyl-2-pyrrolidinone]
collision cross section in nitrogen [1]: 121.7 Å²

CCOC(=O)OC1=C(c2cc(C)ccc2C)C(=O)N[C@]12CC[C@@H](OC)CC2 [Spirotetramat]
collision cross section in nitrogen [1]: 190.2 Å² | collision cross section in nitrogen [2]: 189.3 Å² | collision cross section in nitrogen [3]: 202.3 Å²

CCNc1nc(NC(C)CC)nc(OC)n1 (stereo not given) [Secbumeton]
collision cross section in nitrogen [1]: 155.3 Å² | collision cross section in nitrogen [2]: 155.2 Å² | collision cross section in nitrogen [3]: 172.2 Å²

Cc1cnc2c(C(=O)O)c(Cl)ccc2c1 [Quinmerac]
collision cross section in nitrogen [1]: 139.6 Å² | collision cross section in nitrogen [2]: 140.7 Å² | collision cross section in nitrogen [3]: 158 Å²

Cc1ccc2c(c1N)C(=O)c1ccccc1C2=O [1-Amino-2-methylanthraquinone]
collision cross section in nitrogen [1]: 153.6 Å² | collision cross section in nitrogen [2]: 153.2 Å² | collision cross section in nitrogen [5]: 147.6 Å² | collision cross section in nitrogen [4]: 150.1 Å²

O=C(O)c1ccccc1O [Salicylic acid]
collision cross section in nitrogen [4]: 121.2 Å²

CC(C)CC(=O)C1C(=O)c2ccccc2C1=O [2-Isovaleryl-1,3-indanedione]
collision cross section in nitrogen [4]: 154.2 Å²

CCC(=O)C=Cc1ccc(OC)cc1 [1-(4-Methoxyphenyl)-1-pentene-3-one]
collision cross section in nitrogen [1]: 143.3 Å²

CC(=O)Nc1nnc(S(N)(=O)=O)s1 [Acetazolamide]
collision cross section in nitrogen [4]: 137.8 Å²

CC1CNc2c(cccc2S(=O)(=O)N[C@@H](CCCNC(=N)N)C(=O)N2CC[C@@H](C)C[C@@H]2C(=O)O)C1 (stereo not given in full) [Argatroban]
collision cross section in nitrogen [2]: 216.7 Å² | collision cross section in nitrogen [3]: 221.2 Å² | collision cross section in nitrogen [4]: 207.5 Å²

CCC(C)c1cccc(C(C)CC)c1O (stereo not given) [2,6-Di(butan-2-yl)phenol]
collision cross section in nitrogen [4]: 151.4 Å²

CCCCCCCCCCCCCCN(CCO)CCO [2,2'-(Tetradecylimino)diethanol]
collision cross section in nitrogen [1]: 193 Å² | collision cross section in nitrogen [2]: 193.2 Å² | collision cross section in nitrogen [3]: 187.4 Å²

C=CC(=O)OCCCCCCOC(=O)C=C [1,6-Hexanediol diacrylate]
collision cross section in nitrogen [3]: 157.7 Å²

CC(C)(C)c1cc(CCC(=O)OCC(COC(=O)CCc2cc(C(C)(C)C)c(O)c(C(C)(C)C)c2)(COC(=O)CCc2cc(C(C)(C)C)c(O)c(C(C)(C)C)c2)COC(=O)CCc2cc(C(C)(C)C)c(O)c(C(C)(C)C)c2)cc(C(C)(C)C)c1O [Irganox 1010]
collision cross section in nitrogen [3]: 354.9 Å² | collision cross section in nitrogen [5]: 355.6 Å² | collision cross section in nitrogen [4]: 354.9 Å²

O=P(c1ccccc1)(c1ccccc1)c1ccccc1 [Triphenylphosphine oxide]
collision cross section in nitrogen [1]: 163 Å² | collision cross section in nitrogen [2]: 162.9 Å² | collision cross section in nitrogen [3]: 182.6 Å²

COCc1cnc(C2=NC(C)(C(C)C)C(=O)N2)c(C(=O)O)c1 (stereo not given) [Imazamox]
collision cross section in nitrogen [1]: 172.2 Å² | collision cross section in nitrogen [2]: 172.4 Å² | collision cross section in nitrogen [3]: 188.9 Å² | collision cross section in nitrogen [4]: 178.2 Å²

COc1ccc2[nH]cc(CCNC(C)=O)c2c1 [Melatonin]
collision cross section in nitrogen [1]: 153.7 Å² | collision cross section in nitrogen [2]: 153.3 Å² | collision cross section in nitrogen [3]: 156.9 Å² | collision cross section in nitrogen [4]: 156 Å²

NCCCN1CCN(CCCN)CC1 [1,4-Piperazinedipropanamine]
collision cross section in nitrogen [1]: 150.3 Å² | collision cross section in nitrogen [2]: 150.2 Å²

CN(CCCC(O)c1cccnc1)N=O (stereo not given) [4-(Methylnitrosamino)-1-(3-pyridyl)-1-butanol]
collision cross section in nitrogen [1]: 146.4 Å² | collision cross section in nitrogen [2]: 146.4 Å² | collision cross section in nitrogen [3]: 152.5 Å²

O=C(N[C@H]1CN2CCC1CC2)c1cc2ccoc2cn1 [(R)-N-(Quinuclidin-3-yl)furo(2,3-C)pyridine-5-carboxamide]
collision cross section in nitrogen [1]: 168.1 Å² | collision cross section in nitrogen [2]: 168 Å² | collision cross section in nitrogen [3]: 181 Å² | collision cross section in nitrogen [4]: 172.1 Å²

COP(=O)(CCC(=O)NCO)OC [Dimethyl (3-((hydroxymethyl)amino)-3-oxopropyl)phosphonate]
collision cross section in nitrogen [3]: 144 Å²

C=CCC1=C(C)[C@@H](OC(=O)[C@@H]2[C@@H](C=C(C)C)C2(C)C)CC1=O [S-Bioallethrin]
collision cross section in nitrogen [3]: 184.5 Å²

CCCCOCCOCCO [2-(2-Butoxyethoxy)ethanol]
collision cross section in nitrogen [3]: 141.5 Å²

CCCCCCCCCCCC[N+](C)(C)[O-] [N,N-Dimethyldodecylamine-N-oxide]
collision cross section in nitrogen [1]: 175.3 Å² | collision cross section in nitrogen [2]: 174.4 Å² | collision cross section in nitrogen [3]: 170.8 Å²

COc1ccn(C)c(=O)c1C#N [Ricinine]
collision cross section in nitrogen [1]: 132.2 Å² | collision cross section in nitrogen [2]: 132.4 Å² | collision cross section in nitrogen [3]: 143 Å²

CC(c1ccccc1)(c1ccc(O)cc1)c1ccc(O)cc1 [4,4'-(1-Phenylethylidene)bisphenol]
collision cross section in nitrogen [4]: 180 Å²

O=C(O)CCCC[C@@H]1SC[C@H]2NC(=O)N[C@@H]12 [Biotin]
collision cross section in nitrogen [1]: 149.9 Å² | collision cross section in nitrogen [2]: 149.3 Å² | collision cross section in nitrogen [3]: 159.6 Å² | collision cross section in nitrogen [4]: 155.5 Å²

O=C1c2ccccc2C(=O)C1c1nc2ccccc2c(Br)c1O [C.I. Disperse Yellow 64]
collision cross section in nitrogen [1]: 167.5 Å² | collision cross section in nitrogen [4]: 171.5 Å²

O=[N+]([O-])c1ccc2[nH]cnc2c1 [6-Nitrobenzimidazole]
collision cross section in nitrogen [1]: 136.5 Å² | collision cross section in nitrogen [2]: 136.5 Å² | collision cross section in nitrogen [4]: 123.6 Å²

CCCCC(C#N)(Cn1cncn1)c1ccc(Cl)cc1 (stereo not given) [Myclobutanil]
collision cross section in nitrogen [2]: 174.7 Å²

O=S(=O)(O)c1cc(O)ccc1O [Potassium 2,5-dihydroxybenzenesulfonate]
collision cross section in nitrogen [4]: 131.2 Å²

CCCCCCCCCCOC(C)=O [Decyl acetate]
collision cross section in nitrogen [4]: 155 Å²

CN(C)C(=O)Nc1ccc(Oc2ccc(Cl)cc2)cc1 [Chloroxuron]
collision cross section in nitrogen [1]: 175.3 Å² | collision cross section in nitrogen [2]: 174.9 Å² | collision cross section in nitrogen [3]: 183.1 Å²

O=S(=O)(O)c1ccccc1 [Benzenesulfonic acid]
collision cross section in nitrogen [4]: 127.2 Å²

O=C1C=CC(=O)N1c1ccccc1 [1-Phenyl-1H-pyrrole-2,5-dione]
collision cross section in nitrogen [2]: 135.3 Å²

CCCCOc1ccc(N)cc1 [4-Butyloxyaniline]
collision cross section in nitrogen [2]: 153.5 Å²

O=C1c2ccccc2C(=O)C1c1ccc2ccccc2n1 [D & C Yellow 11]
collision cross section in nitrogen [2]: 158.6 Å² | collision cross section in nitrogen [4]: 163.8 Å²

CC(C)(C#N)Nc1nc(Cl)nc(NC2CC2)n1 [Procyazine]
collision cross section in nitrogen [1]: 159.4 Å² | collision cross section in nitrogen [2]: 159 Å²

Cc1cccc2nccnc12 [5-Methylquinoxaline]
collision cross section in nitrogen [1]: 126.5 Å²

CCCCCCCCCc1ccc(OCCOCCO)cc1 [Igepal CO-210]
collision cross section in nitrogen [3]: 191.3 Å²

CCN(CCC#N)c1ccc(N=Nc2c(Cl)cc([N+](=O)[O-])cc2Cl)cc1 [C.I. Disperse Orange 37]
collision cross section in nitrogen [1]: 197.8 Å² | collision cross section in nitrogen [2]: 197.9 Å²

Nc1ccc(Cc2ccc(N)cc2)cc1 [4,4'-Diaminobiphenyl methane]
collision cross section in nitrogen [1]: 163.3 Å² | collision cross section in nitrogen [2]: 163.1 Å²

CCCCc1c(C)nc(NCC)nc1OS(=O)(=O)N(C)C [Bupirimate]
collision cross section in nitrogen [1]: 175.8 Å² | collision cross section in nitrogen [2]: 175.8 Å² | collision cross section in nitrogen [3]: 181.8 Å² | collision cross section in nitrogen [4]: 175.9 Å²

NNc1nc(-c2ccc([N+](=O)[O-])cc2)cs1 [2-Hydrazino-4-(4-nitrophenyl)thiazole]
collision cross section in nitrogen [4]: 149 Å²

O=C(O)C(F)(F)C(F)(F)C(F)(F)C(F)(F)C(F)(F)C(F)(F)C(F)(F)C(F)(F)F [Perfluorononanoic acid]
collision cross section in nitrogen [4]: 166.1 Å²

CC(C)c1ccc(NC(=O)N(C)C)cc1 [Isoproturon]
collision cross section in nitrogen [1]: 152.9 Å² | collision cross section in nitrogen [2]: 152.1 Å² | collision cross section in nitrogen [3]: 158.8 Å² | collision cross section in nitrogen [4]: 155.4 Å²

O=P1(N(CCCl)CCCl)NCCCO1 (stereo not given) [Cyclophosphamide]
collision cross section in nitrogen [1]: 147.8 Å² | collision cross section in nitrogen [2]: 147.7 Å² | collision cross section in nitrogen [3]: 154.6 Å²

CCCCCCCCCCCCCCCC[N+](C)(C)C [Hexadecyltrimethylammonium bromide]
collision cross section in nitrogen (ion source: APCI, ion mode: Positive, ion type: [M]+ (permanent cation)): 193.1 Å² | collision cross section in nitrogen (ion source: ESI, ion mode: Positive, ion type: [M]+ (permanent cation)): 195.1 Å²
